This note sets out measurements from patent publication US20110020359A1, “METHODS AND COMPOSITIONS FOR TREATING NEURONAL DAMAGE OR DEGENERATION” (California Institute of Technology, priority 2009, published 2011).

For assay [1], the system named is dissociated rat P5-9 CGN cultures. Put plainly: Cerebellar granule neuron (CGN) neurite outgrowth assay. Format: cell-based. The note with it: PD98059 25; AG1478 15 nM; Y27632 5 μM; JNK inhibitor II 10 μM. Here is the method: Nitric acid-treated, 15-mm round German glass coverslips are coated with P-Orn in pH 6-8.5 borate buffer (at approximately 50 μg/ml) for about 1 hr at 37° C. and 5% CO2. CSPGs (at approximately 1 μg/ml) or polysaccharides enriched in the CS-A, CS-C, or CS-E sulfation motifs (at approximately 1 μg/ml) are coated on the P-Orn-coated coverslips overnight at 37° C. and 5% CO2. Cerebella from P5-9 Sprague Dawley rats are dissected, purified as described above, and cultured on the coated coverslips at a cell density of about 200 cells/mm^2. Neurons are grown in DMEM/F12, 1% FBS, and N1 supplement for about 24 hr.
In one example, inhibitors against MEK (PD98059, 25 μM; Calbiochem), EGFR (AG1478, 15 nM; Calbiochem), ROCK (Y27632, 5 μM; Calbiochem) and JNK (JNK Inhibitor II, 10 μM; Calbiochem) are added in solution at the start of culturing, and neurons are grown for 24 hr. For neurite outgrowth experiments from p75 knockout mice, cerebella from P5-7 mice, either C57BL/6 wild-type or p75−/− knockout mice, are dissected and purified as described above. Neurons are plated at a density of 200-300 cells/mm2 and cultured for about 24 hr. Cells are then fixed in 4% PFA/10% sucrose, immunostained with neuronal specific anti-class III β-tubulin antibody (TUJ1; Covance), and evaluated for neurite outgrowth. Neurons are imaged using a Nikon TE2000-S fluorescent microscope and quantified using the NIH software Image J. Statistical analysis is performed using the one-way ANOVA; n=50-200 cells per experiment.
P7 rat CGNs are grown for 24 hours on CS-E (1 μg/ml) in the presence of the CS-E antibody (CS-E Ab; 10 μg/ml).

Assay [2] in a line: Surface plasmon resonance, binding to CS-E-enriched polysaccharides. The note with it: SPR; read-out: dissociation constant (Kd). As to the method:
Surface plasmon resonance experiments can be used to provide quantitative measurements of the binding kinetics or affinity between two or more molecules such as proteins, peptides, and small molecules. All experiments are performed on a Biacore T100 at 25° C. using a Sensor Chip CM5 with a running buffer composed of 0.01 M HEPES, pH 7.4, 0.15 M NaCl, 3 mM EDTA, 0.05% Surfactant P20 (HBS-EP^+). To analyze the binding of anti-CS-E antibody to the CS-E tetrasaccharide, both control and active flow cells are exposed to a 1:1 mixture of N-hydroxysuccinimide hydroxysuccinimide (NHS) and 1-ethyl-3,3-dimethylaminopropyl-carbodiimide (EDC) for 1-10 min at a flow rate of about 10 μL·min^−1. […] The kinetics of the anti-CS-E antibody/CS-E tetrasaccharide interaction is determined by approximately 300 s long injections of anti-CS-E antibody at about 30 μL·min^−1. The dissociation is monitored for about 900 s before the surface is regenerated with a 30 s injection of 6 M guanidine HCl. […] Affinity analysis is measured by injecting the antibody for about 3600 s at 5 μL·min^−1. […] The data is analyzed by plotting the response at equilibrium versus concentration and fitting the resulting curve to the Langmuir equation. […]
In another example, utilizing the surface plasmon resonance methods described, data was generated to quantify measurements of the binding kinetics between CS-E and the binding partner EphA4. […]
(SPR reads the build-up and loss of mass on a sensor chip optically.)

A short description of assay [3]: Carbohydrate microarray, binding to CS-E. Here is the method:
The concentrations of the solutions range from 250 nM to 40 μM, and are calibrated to one another using the carbazole assay for uronic acid residue. A given concentration of each polysaccharide is spotted five to ten times at different positions on the array. A boundary is created around the polysaccharide spots on the slides using a hydrophobic slide marker (Super Pap Pen, Research Products International) and the slides are blocked with 5-10% fetal bovine serum (FBS) in PBS with gentle rocking at 37 ° C. for about 1 hr, followed by a brief rinse with PBS. Human NgR-Fc or mouse EphB2-Fc (R & D Systems) is reconstituted in 1% BSA in PBS, added to the bound region on the slides in 100 μl quantities at a concentration of 1-2 μM, and incubated at room temperature for about 3 hr. The slides are briefly rinsed three times with PBS, and then incubated with a goat anti-human IgG antibody conjugated to Cy3 (1:5000 in PBS) for 1 hr in the dark with gentle rocking. After rinsing two times with PBS and once with H2O, the microarray is analyzed at 532 nm using a GenePix 5000a scanner, and fluorescence quantification is performed using GenePix 6.0. Binding of the anti-CS-E antibody is evaluated using 100 μl of a 1 μg/ml (˜7 nM) solution of antibody and a goat anti-mouse IgG secondary antibody conjugated to Cy3 (1:5000 in PBS). […]

In the case of `COc1cc2ncnc(Nc3cccc(Cl)c3)c2cc1OC` [AG1478], the “rescue of CS-E- and CSPG-mediated inhibition of neurite outgrowth” value in assay [1] is listed as “rescue”. Regarding `O=C1c2ccccc2-c2n[nH]c3cccc1c23` [JNK inhibitor II], the “rescue of CS-E- and CSPG-mediated inhibition of neurite outgrowth” value in assay [1] is “no effect”. Consider `COc1cccc(-c2cc(=O)c3ccccc3o2)c1N` [PD98059], for which the “rescue of CS-E- and CSPG-mediated inhibition of neurite outgrowth” value in assay [1] is listed as “rescue”. Turning to `C[C@@H](N)[C@H]1CC[C@H](C(=O)Nc2ccncc2)CC1` [Y27632], in assay [1], the “rescue of CS-E- and CSPG-mediated inhibition of neurite outgrowth” value is “rescue”.

B1: EfnB1: Ephrin B1, ligand that activates Eph receptors (protein, UniProt P98172 28-346, looked up)
Ephrin-B1: LAKNLEPVSWSSLNPKFLSGKGLVIYPKIGDKLDIICPRAEAGRPYEYYKLYLVRPEQAAACSTVLDPNVLVTCNRPEQEIRFTIKFQEFSPNYMGLEFKKHHDYYITSTSNGSLEGLENREGGVCRTRTMKIIMKVGQDPNAVTPEQLTTSRPSKEADNTVKMATQAPGSRGSLGDSDGKHETVNQEEKSGPGASGGSSGDPDGFFNSKVALFAAVGAGCVIFLLIIIFLTVLLLKLRKRHRKHTQQRAAALSLSTLASPKGGSGTAGTEPSDIIIPLRTTENNYCPHYEKVSGDYGHPVYIVQEMPPQSPANIYYKV
Take B1: in assay [2], the Kd was found to be 138 nM. Besides, the “binding to CS-E-enriched polysaccharides on carbohydrate microarrays” value in assay [3] is on record as “selectively bind”.

B2: EfnA3: Ephrin A3, ligand that activates Eph receptors (protein, UniProt P52797 23-214, looked up)
Ephrin-A3: QGPGGALGNRHAVYWNSSNQHLRREGYTVQVNVNDYLDIYCPHYNSSGVGPGAGPGPGGGAEQYVLYMVSRNGYRTCNASQGFKRWECNRPHAPHSPIKFSEKFQRYSAFSLGYEFHAGHEYYYISTPTHNLHWKCLRMKVFVCCASTSHSGEKPVPTLPQFTMGPNVKINVLEDFEGENPQVPKLEKSISG
As to B2, the dissociation constant (Kd) in assay [2] turned out to be 65 nM. In assay [3], the “binding to CS-E-enriched polysaccharides on carbohydrate microarrays” value is “selectively bind”.

For orientation: Kd means a measure of binding affinity in units of concentration.
